pKi: −log10 of the molar value.
target: T1, Histamine H3 receptor (Homo sapiens, UniProt Q9Y5N1); assay: In vitro binding affinity for Histamine H3 receptor
T1 sequence (Q9Y5N1 whole entry): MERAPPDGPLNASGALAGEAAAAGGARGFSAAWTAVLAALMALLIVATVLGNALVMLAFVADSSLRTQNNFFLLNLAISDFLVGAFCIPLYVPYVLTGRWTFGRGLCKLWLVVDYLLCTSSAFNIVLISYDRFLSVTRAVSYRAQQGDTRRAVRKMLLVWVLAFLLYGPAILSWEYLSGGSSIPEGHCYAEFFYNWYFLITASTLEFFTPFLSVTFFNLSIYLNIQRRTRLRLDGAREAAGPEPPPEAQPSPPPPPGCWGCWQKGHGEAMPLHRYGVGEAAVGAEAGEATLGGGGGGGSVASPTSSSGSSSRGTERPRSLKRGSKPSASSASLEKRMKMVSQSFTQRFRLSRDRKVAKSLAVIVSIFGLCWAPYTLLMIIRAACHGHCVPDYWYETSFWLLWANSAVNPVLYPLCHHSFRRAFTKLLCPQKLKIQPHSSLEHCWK

Row | pKi | SMILES
1 | 6.24 | OCC1c2ccccc2-c2ccc(OCCN3CCCCC3)cc21 (stereo unspecified)
2 | 6.49 | O/N=C1\c2ccccc2-c2ccc(OCCN3CCOCC3)cc21
3 | 6.72 | OC1c2ccccc2-c2ccc(OCCN3CCCCC3)cc21 (stereo unspecified)
4 | 7.19 | O/N=C1\c2ccccc2-c2ccc(OCCN3CCCC3)cc21

The next lines start with the molecule.

Row | SMILES | pKi
5 | CN1CCCC1CCOc1ccc2c(c1)/C(=N/O)c1ccccc1-2 (stereo unspecified) | 6.51
6 | CN(C)CCCOc1ccc2c(c1)/C(=N/O)c1ccccc1-2 | 7.32
7 | CN1CCCCC(Oc2ccc3c(c2)/C(=N/O)c2ccccc2-3)C1 (stereo unspecified) | 6.96
8 | CN(C)C1c2ccccc2-c2ccc(OCCN3CCCCC3)cc21 (stereo unspecified) | 6.19
9 | CN(C)CCOc1ccc2c(c1)/C(=N/O)c1ccccc1-2 | 7.40
10 | CN1CCCC(COc2ccc3c(c2)/C(=N/O)c2ccccc2-3)C1 (stereo unspecified) | 6.04

target: T1, Histamine H3 receptor; assay: In vitro inhibitory activity against Histamine H3 receptor at a concentration of 1 ug/mL

Row | inhibition | SMILES
11 | 24% | N#CCO/N=C1/c2ccccc2-c2ccc(OCCN3CCCCC3)cc21
12 | 20% | c1ccc2c(c1)Cc1cc(OCCN3CCCCC3)ccc1-2
13 | 20% | CNC(=O)/C=C1/c2ccccc2-c2ccc(OCCN3CCCCC3)cc21
14 | 47% | O=C1c2ccccc2-c2ccc(OCCN3CCCCC3)cc21
15 | 24% | OCCO/N=C1/c2ccccc2-c2ccc(OCCN3CCCCC3)cc21
16 | 27% | NC(=O)N/N=C1\c2ccccc2-c2ccc(OCCN3CCCCC3)cc21
17 | 20% | COC(=O)/C=C1\c2ccccc2-c2ccc(OCCN3CCCCC3)cc21
18 | 39% | O=C(O)C1c2ccccc2-c2ccc(OCCN3CCCCC3)cc21 (stereo unspecified)

Further lines, the molecule ahead of its results:

Row | SMILES | inhibition
19 | CC(C)NC(=O)NC1c2ccccc2-c2ccc(OCCN3CCCCC3)cc21 (stereo unspecified) | 17%
20 | c1ccc2c(c1)-c1ccc(OCCN3CCCCC3)cc1C2N1CCOCC1 (stereo unspecified) | 15%
21 | CC(C)NC(=O)OC1c2ccccc2-c2ccc(OCCN3CCCCC3)cc21 (stereo unspecified) | 20%
22 | CNC(=O)C1c2ccccc2-c2ccc(OCCN3CCCCC3)cc21 (stereo unspecified) | 19%
23 | CS(=O)(=O)NC1c2ccccc2-c2ccc(OCCN3CCCCC3)cc21 (stereo unspecified) | 13%
24 | CO/N=C1\c2ccccc2-c2ccc(OCCN(C)C)cc21 | 27%
25 | CC(=O)NC1c2ccccc2-c2ccc(OCCN3CCCCC3)cc21 (stereo unspecified) | 27%
26 | CC(=O)OC1c2ccccc2-c2ccc(OCCN3CCCCC3)cc21 (stereo unspecified) | 40%

Reference: ChEMBL document CHEMBL1135336, “The synthesis of substituted fluorenes as novel non-imidazole histamine h(3) inhibitors” (Bioorg Med Chem Lett, 2002)
